Test results reported in patent publication US20110288036A1, “Methods for Treating or Preventing Vascular Graft Failure” (priority 2010, published 2011).

Test system: mouse lung endothelial cells (MLEC)
Assay: Murine endothelial cell proliferation by direct cell counting
Type: cell-based
Conditions: physiological doses
Description: Primary cultures of mouse lung endothelial cells (MLEC) were isolated as previously described (Ackah, E. et al., J. Clin Invest., 2005, 115(8): 2119-27; Muto, A. et al., J. Exp. Med., 2011, 208(3): 561-575). Mouse lung endothelial cells (MLECs) were isolated from 3-week-old wild type mice. Briefly, mice were euthanized with an overdose of ketamine/xylazine and the lungs excised, minced, and digested with 0.1% collagenase in RPMI medium. The digest was homogenized by passing multiple times through a 14-gauge needle, filtered through a 150-μm tissue sieve, and the cell suspension was plated on 0.1% gelatin-coated dishes. Endothelial cells were then isolated by immunoselection with PECAM-1- and ICAM-2-conjugated magnetic beads. After immunoselection with magnetic beads, endothelial cells were immortalized with polyoma middle T-antigen. Isolated MLEC were maintained with EBM-2/EGM-2 MV SingleQuot® Kit Supplement & Growth Factors (Lonza) containing 15% fetal bovine serum. Cell proliferation in MLEC was measured at 24 and 72 hours after MMI-0100 treatment by direct cell counting after trypsin treatment.

**Q.** How did the “murine EC proliferation” value turn out when YARAAARQARAKALARQLGVAA [MMI-0100] was run?
**A.** The value was “did not induce significant murine EC proliferation”.
